Experimental findings from patent US9497963B2, “Methods and compositions for control of gypsy moth, Lymantria dispar” (Simon Fraser University, priority 2008, dated 2016) are described below.

Entries after “also recorded” stand apart in the source; their conditions may differ. Where two headings read alike, the source gives them in different places.

For assay [1], the system named is male gypsy moth antenna. Put plainly: Coupled gas chromatographic-electroantennographic detection (GC-EAD). Further details: species or system Lymantria dispar. The conditions noted are these: EAD peak size and shape (sharp/broad). The method, boiled down:
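GC column effluent split between flame ionization detector and an excised male moth antenna held between saline-filled glass capillary electrodes, tip removed, in a warm air stream. Antennal potentials assigned to compounds by matching retention times with FID peaks.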

Assay [2] concerns male gypsy moth antenna response to mixed pheromone/modulator plume. Nature of the assay: EAG peak broadening (PB) (Example 11). The following applies: mixed plume, 100 μg compound and 100 ng pheromone (puff v vs puff ii). Further details: species or system Lymantria dispar. Here is the method:
A mixed pheromone/modulator plume could elicit a prolonged response (FIG. 1A, puff v; FIG. 2), and this was termed peak broadening (PB). PB was calculated from the EAG traces as follows: PB=100×(Δtv−Δtii)/Δtii
Where Δt was the width of the EAG peak (in s) from the start of the depolarization to the return to background potential.

Assay [3] has as its system male gypsy moth antenna response to pheromone (+)-1. Put plainly: EAG short-term (STI) and long-term (LTI) inhibition of pheromone signaling (Example 5). More on the design: species or system Lymantria dispar. The following applies: for inhibition at 100 µg, 0.1 mg / inhibition at 0.001 mg / inhibition at 0.01 mg / inhibition at 0.1 mg: Lymantria dispar; for inhibition at 0.001 mg / inhibition at 0.01 mg / inhibition at 0.1 mg / Activity (%): short-term inhibition (STI): negative = enhancement. In short, it runs like this: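 Excised male gypsy moth antenna in saline pH 6.8 under purified air (300 mL/min); 0.3 s puffs: air, (+)-1 100 ng, (+)-1 plus compound 1, 10, 100 μg per cartridge, then (+)-1 alone. STI: mixed-puff air-corrected depolarization loss versus first pheromone puff; LTI: final pheromone-puff loss.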

The test system of assay [4] is male gypsy moth antenna response to odorants other than (+)-1. Nature of the assay: Long-term inhibition of responses to other pheromone and host plant odorants, EAG (Example 8, first objective). More on the design: species or system Lymantria dispar. The conditions noted are these: for long-term activity (%) / short-term activity (%): antagonist 100 μg. Here is the method: To determine whether the long-term inhibitory effects of 3c{2,3} and DEET are specific to (+)-1 or also apply to other odorants, compound 3c{2,3} and DEET were tested further with other odorants: (−)-1, racemic 1, dispar alkene, methyl eugenol and 1-hexanol.
These included (−)-1, racemic 1, dispar alkene (the alkene corresponding to the carbon framework of 1), methyl eugenol (a characteristic oak wood odorant) and 1-hexanol (a green leaf volatile, shown previously to be detected by gypsy moth antennae). For the pure odorant puffs, (−)-1 and racemic 1 were administered at 100 ng/cartridge, the alkene, methyl eugenol was administered at 1 μg/cartridge and 1-hexanol was administered at 100 μg/cartridge. The antagonists were both administered at 100 μg/cartridge, mixed with the appropriate dose of the odorant. The puff order was: i) air, ii) pure odorant, iii) odorant+antagonist, iv) pure odorant. All puffs were corrected for the air response as in Eq. 1. STI values were obtained from the depolarization […]. LTI values were obtained by comparing the depolarization of puff iv relative to that of puff ii.

Assay [5] relates to male gypsy moth antennae response to pheromone (+)-1 with plant odors. Nature of the assay: Effect on mixed pheromone/plant odorant stimulus, EAG (Example 8, second objective). More on the design: species or system Lymantria dispar. Here is the method:
A second objective for this experiment was to determine whether the oak volatiles, methyl eugenol and 1-hexanol, can enhance the antennal response to (+)-1 and whether the mixed pheromone/plant odorant stimulus can be inhibited by compound 3c{2,3} or DEET. The puff order was: i) air, ii) pure (+)-1 (100 ng), iii) (+)-1 (100 ng) and plant odorant (1 μg for methyl eugenol and 100 μg for 1-hexanol), iv) (+)-1 and plant odorant as in iii+antagonist (100 μg), v) same as in iii. Depolarizations were corrected for the air response as in Eq. 1 and the short-term effects were calculated for puff iii relative to puff ii, and for puff iv relative to puff ii. Long-term effects were calculated for puff v relative to puff iii (for LTI of the mixed pheromone/plant odorant plume) and for puff v relative to puff ii (to determine whether long-term effects of the plant odorant and of the antagonist cancel).

Assay [6] concerns gypsy moths. Put plainly: Field test of trap catches, Northern Japan 2009 (Example 12). It counts as in vivo, Lymantria dispar. The conditions noted are these: (+)-dis 40 μg/lure & compound 40 mg/lure, vs (+)-dis alone. As for the experimental part: Ten traps were used per treatment. The solvent used to deliver the compounds onto the lures was doubly distilled hexane. The hexane was evaporated prior to packing and shipping the lures. The field test was conducted in 10 replicates in Northern Japan. The test was conducted Aug. 16-18, 2009, in an area where gypsy moths are known to live. […] Traps were arranged randomized, placed on platforms. The experiment was conducted blind. The lures contained 40 μg disparlure/lure, a low dose for a field trial (typically 100 μg-1 mg are used). For each treatment, 10 traps were deployed.

The subject of assay [7] is third instar gypsy moth larvae. Nature of the assay: Feeding deterrence, oak leaf disc choice test (Example 13). It counts as in vivo, Lymantria dispar. Here is the method: Gypsy moth larvae were tested at the Canadian Forest Service, for feeding deterrence. A selected set of compounds, based on the results with the electroantennogram testing and also based on feeding deterrence assay results with the cabbage looper, T. ni. The experiment was done with third instar larvae and oak leaf discs. Larvae were left to choose between a treated and a control disc for 17.5 hours. Measurements of leaf areas were used to calculate the amount of leaf consumed from control (C) and treated (T) leaves. Feeding deterrence was calculated using the following formula: ((C−T)/(C+T))*100, and expressed in percent, where C=area of control leaf consumed and T=area of treated leaf consumed.

Setting [8] is: mixed plume (+)-1 100 ng + compound 1 μg, mean ± S.E., read-out: Activity (%): short-term inhibition (STI).
The mark [9] stands for this setting: mixed plume (+)-1 100 ng + compound 10 μg, mean ± S.E., read-out: Activity (%): short-term inhibition (STI).
Where [10] appears, read: mixed plume (+)-1 100 ng + compound 100 μg (puff v), mean ± S.E., read-out: Activity (%): short-term inhibition (STI).
Where [11] appears, read: pure (+)-1 100 ng plume following mixed plume with 100 μg compound, mean ± S.E., read-out: Activity (%): long-term inhibition (LTI).
Setting [12] is: odorant racemic disparlure 100 ng.
Setting [13] is: plant synergist 1-hexanol 100 μg.
Where [14] appears, read: plant synergist methyl eugenol 1 μg.
Setting [15] is: third instar larvae, oak leaf discs, choice between treated and control disc for 17.5 hours, ((C−T)/(C+T))*100.
Setting [16] is: mixed plume (+)-1 100 ng + compound 1 μg, mean ± S.E.
The mark [17] stands for this setting: mixed plume (+)-1 100 ng + compound 10 μg, mean ± S.E.
[18] abbreviates: mixed plume (+)-1 100 ng + compound 100 μg (puff v), mean ± S.E.
The mark [19] stands for this setting: pure (+)-1 100 ng plume following mixed plume with 100 μg compound, mean ± S.E.

In the case of `COc1ccccc1OC` [3a{1,1}, 1,2-Dimethoxy benzene], the GC-EAD activity entry in assay [1] was “++ sharp”. Further, in assay [2], the “activity (% peak broadening)” value is reported as 99 ± 25%. The inhibition at 100 µg, 0.1 mg in assay [3] (read-out: Activity (%): long-term inhibition (LTI)) is 18 ± 13%.
For `CCOc1ccccc1OCC` [3a{2,2}, 1,2-Diethoxy benzene], the GC-EAD activity entry in assay [1] is on record as “+ sharp”. Further, the “activity (% peak broadening)” value in assay [2] was found to be 106 ± 32%. For the same molecule, the inhibition at 0.001 mg in assay [3] (setting [8]) is -10 ± 29%. Also, the inhibition at 0.01 mg in assay [3] (setting [9]) was -23 ± 42%. Also, the inhibition at 0.1 mg in assay [3] (setting [10]) was -22 ± 69%. In assay [3] (setting [11]), the inhibition at 100 µg, 0.1 mg turned out to be 15 ± 11%.
As for `CCCOc1ccccc1OCCC` [3a{3,3}, 1,2-Dipropoxy benzene], in assay [1], the GC-EAD activity result was “++ sharp”. In assay [2], the “activity (% peak broadening)” value is recorded as 80 ± 31%. In addition, the inhibition at 0.001 mg in assay [3] (setting [8]) was 37 ± 14%. In addition, the inhibition at 0.01 mg in assay [3] (setting [9]) was 4 ± 21%. The inhibition at 0.1 mg in assay [3] (setting [10]) is -11 ± 36%. In assay [3] (setting [11]), the inhibition at 100 µg, 0.1 mg was 36 ± 9%.
In the case of `CCCCOc1ccccc1OCCCC` [3a{4,4}, 1,2-Dibutoxy benzene], the GC-EAD activity result in assay [1] is “+ broad”. Also, the “activity (% peak broadening)” value in assay [2] was 86 ± 32%. Further, in assay [3] (setting [8]), the inhibition at 0.001 mg was -48 ± 28%. In addition, the inhibition at 0.01 mg in assay [3] (setting [9]) turned out to be 14 ± 31%. The inhibition at 0.1 mg in assay [3] (setting [10]) amounted to 27 ± 29%. Besides, the inhibition at 100 µg, 0.1 mg in assay [3] (setting [11]) was found to be 49 ± 12%.
As to `C=CCOc1cccc(OCC)c1` [3b{2,6}, 1-allyloxy-3-ethoxybenzene], the GC-EAD activity result in assay [1] is listed as “None”. For the same molecule, the “activity (% peak broadening)” value in assay [2] worked out at 77 ± 33%. The inhibition at 0.001 mg in assay [3] (setting [8]) is -115 ± 43%. Besides, the inhibition at 0.01 mg in assay [3] (setting [9]) is -17 ± 54%. Further, the inhibition at 0.1 mg in assay [3] (setting [10]) was -50 ± 74%. Further, the inhibition at 100 µg, 0.1 mg in assay [3] (setting [11]) turned out to be 25 ± 8%.
With `CCCCCCO` [Compound 1-hexanol, 1-hexanol, reference compound], the “EAG response to the pure odorant (in words)” value in assay [4] is recorded as “weak odorant”. The “short-term effect with the plant synergist” value in assay [5] ((+)-1 100 ng + 1-hexanol 100 μg, no antagonist) was −19 ± 24 (10).
In the case of `CCN(CC)C(=O)c1cccc(C)c1` [DEET, reference compound], the “long-term activity (%)” value in assay [4] (odorant 1-hexanol 100 μg) is given as 7 ± 18%; in assay [4] (odorant (−)-disparlure 100 ng), −10 ± 29%; in assay [4] (odorant dispar alkene 1 μg), 52 ± 22%; in assay [4] (odorant methyl eugenol 1 μg), 8 ± 8%; in assay [4] (setting [12]), −126 ± 133%. For the same molecule, the “short-term activity (%)” value in assay [4] (odorant 1-hexanol 100 μg) is listed as 6 ± 30%; in assay [4] (odorant (−)-disparlure 100 ng, negative = enhancement) it was −322 ± 66%; in assay [4] (setting [12]) it was −468 ± 231%. Also, the “short-term effect with plant synergist + antagonist” value is −339 ± 206 (5) in assay [5] ((+)-1 100 ng + 1-hexanol 100 μg + antagonist 100 μg) and −210 ± 120 (5) in assay [5] ((+)-1 100 ng + methyl eugenol 1 μg + antagonist 100 μg). Further, the entries for the “long-term effect on (+)-1 response” value in assay [5] (setting [13]) and in assay [5] (setting [14]) were −53 ± 48 (5) and 27 ± 29 (5), respectively. The “long-term effect on the mixed (+)-1/plant odor plumes” value is on record as −24 ± 19 (5) in assay [5] (setting [13]) and 30 ± 27 (5) in assay [5] (setting [14]). The “trap catches in the field” value in assay [6] is recorded as “enhanced the trap catches significantly”. Further, in assay [7] (setting [15]), the “Feeding Deterrence (%)” value came to 47.76%. The “long-term inhibition (LTI) activity (in words)” value in assay [3] is reported as “strongest long-term inhibitors; also recorded: strong LTI activity”. Besides, the “Activity (%): short-term inhibition (STI)” value in assay [3] (setting [16]) is −165 ± 51 (5) %; in assay [3] (setting [17]) it was −214 ± 48 (5) %; in assay [3] (setting [18]) it was −203±42%. Also, the “inhibition of the recovery phase (RI, R^1 activity)” value in assay [3] (mixed puff with highest dose (puff v)) was found to be 9±9%. For the same molecule, the “Activity (%): long-term inhibition (LTI)” value in assay [3] (setting [19]) was 78 ± 6 (5) %.
Regarding `C=CCc1ccc(OC)c(OC)c1` [Me eugenol], the “EAG response to the pure odorant (in words)” value in assay [4] is listed as “same responses than clean air”. For the same molecule, the GC-EAD activity result in assay [1] is listed as “None”. In assay [6], the “trap catches in the field” value was “enhanced the trap catches significantly”. In assay [7] (foliar, 17.5 h), the “Feeding Deterrence (%)” value was determined as 81.15%. Also, the inhibition at 100 µg, 0.1 mg in assay [3] (read-out: Activity (%): long-term inhibition (LTI), pure (+)-1 100 ng plume following mixed plume with 100 μg compound, mean ± S.E.) is 8 ± 11%. In addition, the inhibition at 0.001 mg in assay [3] (read-out: Activity (%): short-term inhibition (STI), mixed plume (+)-1 100 ng + compound 1 μg, mean ± S.E.) is -1 ± 13%. In addition, in assay [3] (read-out: Activity (%): short-term inhibition (STI), mixed plume (+)-1 100 ng + compound 10 μg, mean ± S.E.), the inhibition at 0.01 mg came out at 76 ± 7%. Besides, the inhibition at 0.1 mg in assay [3] (read-out: Activity (%): short-term inhibition (STI), mixed plume (+)-1 100 ng + compound 100 μg (puff v), mean ± S.E.) is -152 ± 30%.
In the case of `C=CCc1ccc(OCCC)c(OC)c1` [Pr eugenol], the GC-EAD activity result in assay [1] was “None”. Further, the “Feeding Deterrence (%)” value in assay [7] (setting [15]) was found to be 52.67%. The “Activity (%): short-term inhibition (STI)” value in assay [3] (setting [16]) was 18 ± 37 (6) %; in assay [3] (setting [17]), 39 ± 23 (6) %; in assay [3] (setting [18]), −79 ± 25 (6) %. Also, the “Activity (%): long-term inhibition (LTI)” value in assay [3] (setting [19]) is 7 ± 6 (6) %.
